Laboratory results taken from ChEMBL document CHEMBL1201862, “PubChem BioAssay data set” (2004).
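How tested: cells in 96-well plates exposed to compound for 48 hours at five concentrations. The concentration for 50% growth inhibition is given as GI50.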 Calls of active or inactive are those of the source. No stated cut-off is given here; in the data, active = GI50 up to about 1.1 µM and inactive = higher.

Key:
Experiment in all cases: DTP human tumour cell line panel, 48 h
A549 = tested on: A549
ACHN = tested on: ACHN
CAKI-1 = tested on: CAKI-1
COLO 205 = tested on: COLO 205
HCC 2998 = tested on: HCC 2998
HOP-92 = tested on: HOP-92
K562 = tested on: K562
MOLT-4 = tested on: MOLT-4
Malme-3M = tested on: Malme-3M
OVCAR-5 = tested on: OVCAR-5
OVCAR-8 = tested on: OVCAR-8
RXF 393 = tested on: RXF 393
SF-268 = tested on: SF-268
SF-539 = tested on: SF-539
SK-MEL-5 = tested on: SK-MEL-5
SNB-75 = tested on: SNB-75
TK-10 = tested on: TK-10
UACC-257 = tested on: UACC-257
UACC-62 = tested on: UACC-62

SMILES | GI50 (A549) | GI50 (ACHN) | GI50 (CAKI-1) | GI50 (COLO 205) | GI50 (HCC 2998) | GI50 (HOP-92) | GI50 (K562) | GI50 (MOLT-4) | GI50 (Malme-3M) | GI50 (OVCAR-5) | GI50 (OVCAR-8) | GI50 (RXF 393) | GI50 (SF-268) | GI50 (SF-539) | GI50 (SK-MEL-5) | GI50 (SNB-75) | GI50 (TK-10) | GI50 (UACC-257) | GI50 (UACC-62)
CCOC(=O)Cn1c(=O)c2nc(SC)sc2n(-c2ccc(C)cc2)c1=S | > 60.4 µM (inactive) | 48.1 µM (inactive) | > 100 µM (inactive) | > 100 µM (inactive) | > 56.9 µM (inactive) | 21.6 µM (inactive) | > 100 µM (inactive) | > 100 µM (inactive) | 40.4 µM (inactive) | > 100 µM (inactive) | 36.6 µM (inactive) | 22.8 µM (inactive) | 30.1 µM (inactive) | 36.1 µM (inactive) | > 100 µM (inactive) | 9.71 µM (inactive) | 36.7 µM (inactive) | > 100 µM (inactive) | 43.8 µM (inactive)
CCCc1nc(Cl)c(Cl)c(Cl)n1 | 19.1 µM (inactive) | – | 10.7 µM (inactive) | 25.4 µM (inactive) | 0.556 µM (active) | 21 µM (inactive) | 9.53 µM (inactive) | 12.4 µM (inactive) | 10.7 µM (inactive) | 31.8 µM (inactive) | 18.7 µM (inactive) | 19.2 µM (inactive) | 11.9 µM (inactive) | 26.9 µM (inactive) | 44.5 µM (inactive) | 4.28 µM (inactive) | > 71.9 µM (inactive) | 32.7 µM (inactive) | 36.5 µM (inactive)
CC[C@](O)(CC(=O)O[C@H]1C(=O)O[C@@H]2C[C@H]3C(C)=CC(=O)[C@@H](O)[C@]3(C)[C@H]3[C@@]4(O)OC[C@]32[C@@H]1[C@@H](C)[C@H]4O)C(C)C | < 0.01 µM (active) | < 0.01 µM (active) | < 0.01 µM (active) | < 0.01 µM (active) | < 0.01 µM (active) | < 0.01 µM (active) | < 0.01 µM (active) | < 0.01 µM (active) | < 0.01 µM (active) | < 0.01 µM (active) | < 0.01 µM (active) | < 0.01 µM (active) | < 0.01 µM (active) | < 0.01 µM (active) | < 0.01 µM (active) | < 0.01 µM (active) | < 0.01 µM (active) | < 0.01 µM (active) | < 0.01 µM (active)
CCCCCCCCP(=O)(O)OP(=O)(O)OCC1OC(n2ccc(N)nc2=O)C(O)C1O (centres undefined) | > 100 µM (inactive) | > 100 µM (inactive) | > 100 µM (inactive) | > 100 µM (inactive) | > 100 µM (inactive) | > 100 µM (inactive) | > 100 µM (inactive) | > 100 µM (inactive) | > 100 µM (inactive) | > 100 µM (inactive) | > 100 µM (inactive) | > 100 µM (inactive) | > 100 µM (inactive) | > 100 µM (inactive) | > 100 µM (inactive) | > 100 µM (inactive) | > 100 µM (inactive) | > 100 µM (inactive) | > 100 µM (inactive)
COc1ccccc1NC(=S)NN=C(C)c1cccc(C(C)=NNC(=S)Nc2ccccc2OC)n1 | 29.2 µM (inactive) | 14.7 µM (inactive) | 82.2 µM (inactive) | 19.6 µM (inactive) | > 100 µM (inactive) | 21.7 µM (inactive) | 20 µM (inactive) | 3.54 µM (inactive) | 3.49 µM (inactive) | > 100 µM (inactive) | 12.9 µM (inactive) | 12.9 µM (inactive) | 15.9 µM (inactive) | 19.9 µM (inactive) | 3.94 µM (inactive) | 94.6 µM (inactive) | 0.18 µM (active) | 25.8 µM (inactive) | 20.5 µM (inactive)
CCOC(=O)/C=C(/C(=O)OCC)n1cc(C)c(=O)n(Cc2cnnn2COCCOC(C)=O)c1=O | 50.4 µM (inactive) | 6.05 µM (inactive) | 5.26 µM (inactive) | 3.79 µM (inactive) | 20 µM (inactive) | 2.43 µM (inactive) | 2.99 µM (inactive) | 3.94 µM (inactive) | 2.8 µM (inactive) | 16.4 µM (inactive) | 14.7 µM (inactive) | 2.64 µM (inactive) | 17.4 µM (inactive) | 5.22 µM (inactive) | 20.7 µM (inactive) | 24.9 µM (inactive) | 5.24 µM (inactive) | 13.5 µM (inactive) | 15.2 µM (inactive)
CC(=O)NC1C(OCc2ccccc2)OC(CO)C(O)C1OC(C)C(=O)NC(C)C(=O)NC(CCC(=O)NCCCNc1c2ccccc2nc2cccc([N+](=O)[O-])c12)C(N)=O (centres undefined) | 1.43 µM (inactive) | 0.792 µM (active) | 1.7 µM (inactive) | 0.57 µM (active) | 1.14 µM (inactive) | 1.99 µM (inactive) | 1.17 µM (inactive) | 3.27 µM (inactive) | 2.21 µM (inactive) | 2.24 µM (inactive) | 1.05 µM (active) | 1.31 µM (inactive) | 1.38 µM (inactive) | 3.86 µM (inactive) | 1.01 µM (active) | 1.99 µM (inactive) | 2.94 µM (inactive) | 2 µM (inactive) | 1.25 µM (inactive)
COc1ccc2oc(=O)c(-c3nc4ccccc4o3)cc2c1 | > 100 µM (inactive) | > 100 µM (inactive) | > 100 µM (inactive) | 81.7 µM (inactive) | 55 µM (inactive) | > 100 µM (inactive) | 69.5 µM (inactive) | > 100 µM (inactive) | > 100 µM (inactive) | > 100 µM (inactive) | > 100 µM (inactive) | 53.3 µM (inactive) | > 100 µM (inactive) | > 100 µM (inactive) | 39.1 µM (inactive) | 55.1 µM (inactive) | > 100 µM (inactive) | > 100 µM (inactive) | 65 µM (inactive)
CC1=NN(c2cc(Cl)c(S(=O)(=O)O)cc2Cl)C2(C1)C(Cl)C(=O)N2c1nc2ccccc2s1 (centres undefined) | > 100 µM (inactive) | > 100 µM (inactive) | > 100 µM (inactive) | > 100 µM (inactive) | > 100 µM (inactive) | > 100 µM (inactive) | > 100 µM (inactive) | 45.6 µM (inactive) | > 100 µM (inactive) | > 100 µM (inactive) | 86.9 µM (inactive) | > 100 µM (inactive) | > 100 µM (inactive) | > 100 µM (inactive) | > 100 µM (inactive) | > 100 µM (inactive) | 68.5 µM (inactive) | > 100 µM (inactive) | 71 µM (inactive)
Cn1c(-c2cccs2)cc(-c2ccsc2)c1-c1cccs1 | > 100 µM (inactive) | 61.1 µM (inactive) | > 100 µM (inactive) | 17.3 µM (inactive) | > 100 µM (inactive) | > 100 µM (inactive) | 75.7 µM (inactive) | 55.7 µM (inactive) | > 100 µM (inactive) | > 100 µM (inactive) | > 100 µM (inactive) | > 100 µM (inactive) | > 100 µM (inactive) | > 100 µM (inactive) | > 10 µM (inactive) | 62.1 µM (inactive) | > 100 µM (inactive) | 52.2 µM (inactive) | 42.6 µM (inactive)
CC1(C)CC(O)C2=C(O1)C(=O)c1ncccc1C2=O (centres undefined) | 9.51 µM (inactive) | 2.93 µM (inactive) | 2.24 µM (inactive) | 2.32 µM (inactive) | 5.41 µM (inactive) | 2.28 µM (inactive) | 2.11 µM (inactive) | 1.93 µM (inactive) | 1.49 µM (inactive) | 1.89 µM (inactive) | 2.6 µM (inactive) | 3.4 µM (inactive) | 2 µM (inactive) | 1.84 µM (inactive) | 1.66 µM (inactive) | 0.53 µM (active) | 6.46 µM (inactive) | 1.71 µM (inactive) | 1.72 µM (inactive)
CC(C)=CCC[C@@H](C)C1=C(Nc2ccccc2Cl)C(=O)C(C)=C(O)C1=O | 3.24 µM (inactive) | 2.26 µM (inactive) | 4.06 µM (inactive) | 2.84 µM (inactive) | 6.18 µM (inactive) | 6.82 µM (inactive) | 17.1 µM (inactive) | 2.04 µM (inactive) | 4.29 µM (inactive) | 14.6 µM (inactive) | 2.81 µM (inactive) | 11.7 µM (inactive) | 3.85 µM (inactive) | 3.79 µM (inactive) | 1.95 µM (inactive) | 1.87 µM (inactive) | 4.88 µM (inactive) | 6.46 µM (inactive) | 3.67 µM (inactive)
COc1cc(C=C2N=C(c3ccccc3)N(n3c(-c4ccccc4)nc4ccccc4c3=O)C2=O)cc(OC)c1OC | 36.9 µM (inactive) | 28.7 µM (inactive) | 48.3 µM (inactive) | 22 µM (inactive) | 30.7 µM (inactive) | 14.5 µM (inactive) | 45.8 µM (inactive) | 30 µM (inactive) | 19.3 µM (inactive) | 38.9 µM (inactive) | 21.1 µM (inactive) | 12.1 µM (inactive) | 28.4 µM (inactive) | 18.7 µM (inactive) | 23.4 µM (inactive) | 23.1 µM (inactive) | 45.9 µM (inactive) | 20.1 µM (inactive) | 22.3 µM (inactive)
CCN(CC)c1ccc(/C=C2\CCc3ccc([N+](=O)[O-])cc3C2=O)cc1 | 4.58 µM (inactive) | 8.85 µM (inactive) | > 26.6 µM (inactive) | 4.01 µM (inactive) | 10.1 µM (inactive) | > 100 µM (inactive) | 0.0755 µM (active) | 0.488 µM (active) | 2.52 µM (inactive) | > 100 µM (inactive) | 3.73 µM (inactive) | 2.99 µM (inactive) | 14.4 µM (inactive) | 2.25 µM (inactive) | 1.71 µM (inactive) | 2.52 µM (inactive) | 2.86 µM (inactive) | – | 1.29 µM (inactive)
